Measured values reported in article PMC7269033, “A composite nanocarrier to inhibit precipitation of the weakly basic drug in the gastrointestinal tract” (Drug Delivery, 2020).
Converted amounts (≈) assume the structure as drawn. Where two headings read alike, the source gives them in different places.

How the values were obtained:
[1] = Cytotoxicity by MTT assay; assay type: cell-based; details: human, Caco-2 cells, tested concentrations 0.05 μg/mL to 200 μg/mL, read-out: cell viability
Description: Cytotoxicity of DE, dabigatran etexilate-loaded single micelles (DE-SMs) and DE-CMs was investigated by the MTT assay (Zhai et al., [2013]). Caco-2 cells were supplied by KeyGEN BioTECH Co., Ltd. (Nanjing, China) and maintained in medium composite of DMEM (high glucose), 20% FBS and 1% penicillin/streptomycin solution. Cells were cultured at a density of 5 × 10^4 cells/well in 96-well plates and incubated at 37 °C under 5% CO2 for 24 h. Then, the complete medium was removed and cells were further incubated with 100 μL of complete medium containing DE, DE-SMs and DE-CMs at 37 °C for 24 h, respectively. Next, the medium was replaced with 20 μL of MTT (5 mg/mL) solution and 80 μL of fresh medium. Following 4 h of incubation, the medium containing MTT was discarded and 150 μL of DMSO was added to each well to dissolve the granular crystallization. The optical density of the samples was measured at 490 nm wavelength using a microplate ELISA analyzer (Thermo Scientific, USA) (Fan et al., [2017a]). The negative control was the group of Caco-2 cells without drugs. Cell viability was calculated as follows: (4) Cell viability (%)=(1−ODnegtive control−ODsample/ODnegtive control)×100% where ODnegative control is the optical density of the negative control group, and ODsample is the optical density of the experimental group.

[2] = Cellular transport studies (Papp, efflux ratio); assay type: in vitro ADME; details: human
Description: The Caco-2 cell monolayer is the most widespread model for cellular transport experiments to evaluate the efflux effect of P-gp (Hunter et al., [1993]). The transepithelial electrical resistance (TEER) value of Caco-2 cell monolayer model was measured using a cell resistance meter (Millicell-ERS, Millipore, USA), and models were used for transport experiments when the TEER value exceeded […] (Andrew & Cameron, [2012]).
For apical to basolateral (AP > BL) (basolateral to apical (BL > AP)) transport experiments, 1.5 mL of Hank’s Balanced Salt Solution (HBSS) loaded with DE, DE-SMs and DE-CMs (the concentration of DE in different groups was 200 μg/mL) was added to the AP side (BL side) and 2.6 mL of blank HBSS was added to the BL side (AP side), respectively. At fixed time intervals, 400 μL aliquots were taken from the BL side (AP side) with replacement of the fresh HBSS. The samples were frozen in a refrigerator at –80 °C until HPLC analysis. The HPLC method employed an ODS C18 column (250 × 4.6 mm, 5 μm, Dikma Technologies, China) and a methanol-water (75:25, v/v) mobile phase with a flow rate of 1.0 mL/min. The detection wavelength was 316 nm and the injection volume was 20 μL. The apparent permeability coefficient (Papp) and efflux ratio (ER) were calculated as follows: (5) Papp=dQ/dt/A×C0 where dQ/dt is the steady-state appearance rate of DE on the receiver side, C0 is the initial concentration of DE on the supply side, and A is the surface area of the cell monolayer. (6) ER=Papp(BL→AP)/Papp(AP→BL) where Papp(BL→AP) is the Papp value of DE transferred from the BL side to AP side, and Papp(AP→BL) is the Papp value of DE transferred from the AP side to BL side.

[3] = parameters: method as in Chai et al., 2016; details: 37 °C, ref Chai et al., 2016, cited from earlier work
[4] = cited from earlier work

efflux ratio at 200 μg/mL ([2]; Caco-2, Papp(BL→AP)/Papp(AP→BL), read-out: ER value (efflux ratio)): 14.2
Papp A→B at 200 μg/mL ([2]; Caco-2 monolayer, DE 200 μg/mL, read-out: Papp (AP to BL)): 0.59 ± 0.055 ×10⁻⁶ cm/s
Papp B→A at 200 μg/mL ([2]; Caco-2 monolayer, DE 200 μg/mL, read-out: Papp (BL to AP)): 8.44 ± 0.072 ×10⁻⁶ cm/s
Structure (SMILES): CCCCCCOC(=O)NC(=N)c1ccc(NCc2nc3cc(C(=O)N(CCC(=O)OCC)c4ccccn4)ccc3n2C)cc1 [DE, dabigatran etexilate]
viability at 24 h [1]: > 80%
solubility ([3]; SGF): 19245 µg/mL (≈ 30.7 mM)
solubility ([3]; SIF): 3.06 µg/mL (≈ 0.00487 mM)
absolute bioavailability ([4]; after oral administration, ref Greig & Mckeage, 2014): approximately 6.5%
oral bioavailability ([4]; ref Wang et al., 2013): 3–7%
